Laboratory results: US11426441B2, “Composition comprising protein phosphatase 1 inhibitory peptide for treating vascular diseases” (BethphaGen Inc., priority 2016, dated 2022)

Columns and labels:
[1] = system: SERCA2a; assay: A23187-induced SERCA2a degradation in HCSMCs; format: cell-based, human
Description: (§1) FIGS. 4a, 4b, 4c and 4d. (4a-4c) HCSMCs were pretreated with 3 μM ψPLB-SE and 15 μM MDL28170 for 1 hour, and then treated with 50 μM A23187 for 2 hours. (4a) Immunostaining was performed with antibodies against SERCA2a and SERCA2b (green). Nuclei were stained with Hoechst (blue). Representative merged images are shown. Scale bar, 50 μm. (4b) Western blot analysis was performed with cell extracts. Data are expressed as the means±SD (n=3-4; *, P<0.05). (4c) Baseline Ca^2+ concentration was measured by lonOptix calcium imaging system. (4d) RASMC were treated with ψPLB-SE or control peptide under the same conditions as described for FIG. 1B. The baseline Ca^2+ concentration was measured by lonOptix calcium imaging system (*, P<0.05).
The rat aortic smooth muscle cells (RASMCs) were isolated from the medial layer of the thoracic aorta derived from male Sprague-Dawley rats (body weight, 180-200 g) by an enzymatic reaction with collagenase (50 U/mL, Worthington) and pancreatic elastase (0.25 mg/mL, Sigma-Aldrich) for 4 hours at 37. The cells were collected and resuspended in DMEM containing 20% (v/v) fetal bovine serum. The resuspension was then plated on collagen I (Sigma-Aldrich)-coated glass coverslips and incubated at 37 in an atmosphere of 5% (v/v) CO2 and 95% (v/v) air. Human coronary smooth muscle cells (HCSMCs), pulmonary arterial endothelial cells (PAECs), and pulmonary arterial smooth muscle cells (PASMCs) were purchased from Lonza and cultured in EBM or SmBM (Lonza) supplemented with 0.5 mg/mL hEGF, […], 1 mg/mL hFGF, […] gentamicin/amphotericin-B, and 5% fetal bovine serum. All the cells were cultured at 37 in 5% (v/v) CO2 and 95% (v/v) air. RASMCs and HCSMCs were, respectively, plated at the densities of 1×10^4 cells/cm^2 and 1×10^5 cells/cm^2 for immunostaining and western blotting experiments. […]
Vascular smooth muscle cells (VSMCs) were homogenized in a minimal volume of 50 mM Tris-HCl, pH 7.4, supplemented with a broad-spectrum protease inhibitor cocktail (Calbiochem). […] The blots were scanned and quantified using LAS software.

[2] = system: cytosolic Ca^2+ level; assay: Intracellular Ca2+ measurement in HCSMCs; format: cell-based, human
Description: as §1
The intracellular Ca^2+ level was measured in VSMCs by loading cells with 0.5 μM Fura2-AM (Molecular Probes, Eugene Oreg., USA), a Ca^2+-sensitive indicator, for 15 minutes at 37. The fluorescence was recorded using the lonOptix calcium imaging system. VSMCs were stimulated by the exposure to light emitted by a 75 W halogen lamp through either a 340 nm or 380 nm filter. The fluorescent emissions were detected between 480 nm and 520 nm by a photomultiplier tube after an initial illumination at 340 nm for 0.5 second and then at 380 nm during recording. The 340 nm excitation scan was repeated at the end of the protocol, and qualitative changes in the intracellular Ca^2+ level were inferred from the ratio of the Fura2 fluorescent intensity at both wavelengths.

[3] = system: eNOS and Akt; assay: eNOS and Akt phosphorylation in PAECs (western blotting); format: cell-based; conditions: 100 nM okadaic acid
Description: FIGS. 16a, 16b and 16c. (16a-16b) PAECs were treated with 3 μM ψPLB-SE for 1 hour, and protein expression was quantitatively analyzed through western blotting using antibodies against Phospho-eNOS (ser1177), total eNOS, phospho-Akt (Ser473, Thr308), total Akt, and GAPDH. (16c) The pulmonary tissue lysate was subjected to immunoprecipitation using PP1 antibody to investigate the interactions of PP1 with eNOS and Akt depending on the presence or absence of the treatment with ψPLB-SE using respective antibodies therefor.
FIGS. 17a, 17b and 17c. (17a) PAECs were treated with 50 μM LY294002, a PI3K inhibitor, for 24 hours, and then treated with 3 μM ψPLB-SE for 1 hour. Protein expression was quantitatively analyzed through western blotting using antibodies against Phospho-eNOS (ser1177), total eNOS, phospho-Akt (Ser473, Thr308), total Akt, and GAPDH. (17b) PAECs were treated with 10 μM inhibitor IV, an Akt inhibitor, for 2 hours, and then treated with 3 μM ψPLB-SE for 1 hour. Protein expression was quantitatively analyzed through western blotting using antibodies against total eNOS and GAPDH. (17c) PAECs were treated with 100 nM OA, a PP1 inhibitor, for 24 hours, and then treated with 3 μM ψPLB-SE for 1 hour. Protein expression was quantitatively analyzed through western blotting using antibodies against Phospho-eNOS (ser1177), total eNOS, phospho-Akt (Ser473, Thr308), total Akt, and GAPDH.
ψPLB-SE (RAE16TIEMPQ; SEQ ID NO: 2) was derived from the PLB protein sequence surrounding the Ser16 phosphorylation site. To facilitate uptake into cells, the peptide was conjugated to the cell penetrating peptide dNP2 ([…]; SEQ ID NO: 21) or TAT (YGRKKRRQRRR; SEQ ID NO: 22). The peptides used in the present invention were PLB-SE (RAETIEMPQ; SEQ ID NO: 2) and control peptide (RASTIEMPQ; SEQ ID NO: 23). PLB-SE and cell penetrating peptide were connected by a linker peptide (GGG; SEQ ID NO: 24) The peptides (purity of 95% or higher, AnyGen, Gwangju, Korea) was resuspended in double-distilled water or physiological saline at a stock concentration of 3 mM (cells), 2.5 mg/ml (rats), or 500 μg/ml (mice). The rats were treated with 1 mg/kg peptides and mice were treated with 2 mg/kg peptides. The rat aortic smooth muscle cells (RASMCs), human coronary smooth muscle cells (HCSMCs), pulmonary arterial endothelial cells (PAECs), and pulmonary arterial smooth muscle cells (PASMCs) were treated with the peptides at a final concentration of 3 μM for 1 hour. The PI3K inhibitor LY294002 (Millipore, USA), the Akt inhibitor Inhibitor IV (Calbiochem, USA), and the PP1 inhibitor okadaic acid (Sigma Aldrich, USA), used in the experiments using pulmonary arterial endothelial cells (PAECs), were purchased. For the monocrotaline aqueous solution, the monocrotaline powder (Sigma Aldrich, USA) was dissolved in a small amount of a 1 M hydrochloric acid solution (HCL), diluted with sterilized distilled water, and adjusted to pH 7.35 by addition of sodium hydroxide (NaOH). The animals were bred and observed in the same conditions as in the control group during the experiment periods. In addition, the calcium ionophore A23187 and the calpain I and II inhibitors MDL28170 and […] were purchased from Sigma-Aldrich (St. Louis, Mo., USA).
Vascular smooth muscle cells (VSMCs) were homogenized in a minimal volume of 50 mM Tris-HCl, pH 7.4, supplemented with a broad-spectrum protease inhibitor cocktail (Calbiochem). The proteins were separated by SDS-PAGE and then transferred to polyvinylidene fluoride membranes (Schleicher & Schuell). After blocking with 5% (w/v) non-fat milk for 1 hour and washing with TBST, the membranes were incubated with antibodies against SERCA2a, SERCA2b (21st century biochemical), PCNA (abcam), GAPDH (Sigma-Aldrich), phospho-eNOS, eNOS, phospho-eIF2α, eIF2α (cell signaling), Vimentin, α-SMA, BMPR2 (Santa cruz), phospho-Akt, Akt (cell signaling), phospho-phospholamban (Merck), and Phospholamban (cell signaling). […]

[4] = system: SERCA2a; assay: SERCA2a level and stability in RASMCs (immunostaining, western blotting); format: cell-based, rat; conditions: synthetic conditions, calpain inhibitor
Description: (§2) Rat aortic smooth muscle cells (RASMCs) were fixed in 4% (w/v) paraformaldehyde at room temperature for 10 min, washed with PBS, and then transmitted with 0.1% (v/v) Triton X-100 in PBS for 40 min. After washing and blocking with 3% (w/v) BSA in PBS, the cells were incubated overnight at room temperature with antibodies against SERCA2a (1:250), SERCA2b (1:250), and PCNA (1:50). On the following day, the cells were washed with PBS and incubated with anti-rabbit and anti-mouse IgG conjugated to Alexa Fluor 488 and 594, respectively, for 1 hour at room temperature. The cells were treated with FluoroGuard antifade reagent (Bio-Rad, Hercules, Calif., USA), and the coverslips were examined under a fluorescent microscope.
Vascular smooth muscle cells (VSMCs) were homogenized in a minimal volume of 50 mM Tris-HCl, pH 7.4, supplemented with a broad-spectrum protease inhibitor cocktail (Calbiochem). The proteins were separated by SDS-PAGE and then transferred to polyvinylidene fluoride membranes (Schleicher & Schuell). After blocking with 5% (w/v) non-fat milk for 1 hour and washing with TBST, the membranes were incubated with antibodies against SERCA2a, SERCA2b (21st century biochemical), PCNA (abcam), GAPDH (Sigma-Aldrich), phospho-eNOS, eNOS, phospho-eIF2α, eIF2α (cell signaling), Vimentin, α-SMA, BMPR2 (Santa cruz), phospho-Akt, Akt (cell signaling), phospho-phospholamban (Merck), and Phospholamban (cell signaling). The membranes were then incubated with horseradish peroxidase-conjugated secondary antibodies (Jackson ImmunoResearch, West Grove, Pa., USA) and developed using a chemiluminescent substrate (Dogen). The blots were scanned and quantified using LAS software.
RASMCs were cultured in DMEM supplemented with 0.1% (v/v) FBS (Contractile) or in DMEM supplemented with 10% (v/v) FBS (Synthetic) in the presence of 3 μM control or ψPLB-SE peptide. Cycloheximide (Sigma) was added to media to a final concentration of 5 μg/ml. Cells were harvested after 0, 3, and 5 days of incubation and their protein extracts were subjected to western blotting.

[5] = system: rat aortic smooth muscle cells (RASMCs); assay: RASMC proliferation (PCNA immunostaining, EZ-CyTox cell viability assay); format: cell-based; conditions: RASMCs, synthetic conditions, calpain inhibitor
Description: The rat aortic smooth muscle cells (RASMCs) were isolated from the medial layer of the thoracic aorta derived from male Sprague-Dawley rats (body weight, 180-200 g) by an enzymatic reaction with collagenase (50 U/mL, Worthington) and pancreatic elastase (0.25 mg/mL, Sigma-Aldrich) for 4 hours at 37. The cells were collected and resuspended in DMEM containing 20% (v/v) fetal bovine serum. The resuspension was then plated on collagen I (Sigma-Aldrich)-coated glass coverslips and incubated at 37 in an atmosphere of 5% (v/v) CO2 and 95% (v/v) air. Human coronary smooth muscle cells (HCSMCs), pulmonary arterial endothelial cells (PAECs), and pulmonary arterial smooth muscle cells (PASMCs) were purchased from Lonza and cultured in EBM or SmBM (Lonza) supplemented with 0.5 mg/mL hEGF, […], 1 mg/mL hFGF, […] gentamicin/amphotericin-B, and 5% fetal bovine serum. All the cells were cultured at 37 in 5% (v/v) CO2 and 95% (v/v) air. RASMCs and HCSMCs were, respectively, plated at the densities of 1×10^4 cells/cm^2 and 1×10^5 cells/cm^2 for immunostaining and western blotting experiments. For RASMC and PASMC cell proliferation experiments, these cells were cultured in fetal bovine serum-free media for 3 days, and then proliferation was induced by serum addition.
as §2, with “microscope. […]” for “microscope.”

[6] = HCSMCs, 50 μM A23187 for 2 hours
[7] = HCSMCs pretreated 1 hour with 3 μM ψPLB-SE or 15 μM MDL28170, then 50 μM A23187 2 hours

## CNc1ccc2oc(C[C@H]3O[C@@]4(CC[C@H]3C)O[C@H]([C@H](C)C(=O)c3ccc[nH]3)[C@H](C)C[C@H]4C)nc2c1C(=O)O [A23187]
[1]; [6]
  degradation of SERCA2a: evoked the degradation
[2]; [6]
  cytosolic Ca^2+ level: elevation

## C=C1[C@@H](O)[C@@H]2O[C@]3(CC[C@H](/C=C/[C@@H](C)[C@@H]4CC(C)=C[C@@]5(O[C@H](C[C@@](C)(O)C(=O)O)CC[C@H]5O)O4)O3)CC[C@H]2O[C@@H]1[C@@H](O)C[C@H](C)[C@H]1O[C@@]2(CCCCO2)CC[C@H]1C [okadaic acid, reference compound]
[3]
  phosphorylation of Akt and eNOS: increased

## MDL28170 [reference compound]
[4]
  degradation of SERCA2a (immunostaining): inhibited
  degradation of SERCA2a (western blotting): protective effect
[1]; [7]
  A23187 (Ca^2+)-dependent degradation of SERCA2a: completely blocked
[5]
  PCNA level: decreased
[2]; [7]
  elevation of the cytosolic Ca^2+ level by A23187: not
